Measured values from patent US10703751B2, “Amino-imidazopyridine derivatives as Janus kinase inhibitors and pharmaceutical use thereof” (LEO Pharma A/S, priority 2017, dated 2020).

Tests used:
Type in all cases: in vitro ADME
CYP2B6 = CYP2B6 (Homo sapiens (Human), UniProt P20813); experiment: Reversible CYP inhibition, 2B6; details: up to 50 μM for Example 3
Method: (§1) Reversible CYP inhibition, time dependent CYP inhibition (TDI) and CYP induction was tested at Cyprotex PLC according to authority guidance.

CYP [1] = experiment: Reversible CYP inhibition, overall statement; details: substrate concentrations up to 50 μM
Method: as §1

CYP [2] = experiment: Time dependent CYP inhibition (TDI)
Method: as §1

CYP1A2 gene expression = experiment: CYP induction, CYP1A2 mRNA expression; details: Example 3: up to at least a concentration of 10 μM
Method: as §1
Induction of CYP1A2, CYP2B6 and CYP3A4 gene expression can serve as sensitive representative endpoints for activation of aryl hydrocarbon receptor (AhR), […], respectively. Induction of these nuclear receptors was assessed by measuring the increase in mRNA encoding for […], respectively, at relevant concentrations.
A >2-fold shift indicate CYP Induction.

CYP2B6, sequence (P20813 whole entry): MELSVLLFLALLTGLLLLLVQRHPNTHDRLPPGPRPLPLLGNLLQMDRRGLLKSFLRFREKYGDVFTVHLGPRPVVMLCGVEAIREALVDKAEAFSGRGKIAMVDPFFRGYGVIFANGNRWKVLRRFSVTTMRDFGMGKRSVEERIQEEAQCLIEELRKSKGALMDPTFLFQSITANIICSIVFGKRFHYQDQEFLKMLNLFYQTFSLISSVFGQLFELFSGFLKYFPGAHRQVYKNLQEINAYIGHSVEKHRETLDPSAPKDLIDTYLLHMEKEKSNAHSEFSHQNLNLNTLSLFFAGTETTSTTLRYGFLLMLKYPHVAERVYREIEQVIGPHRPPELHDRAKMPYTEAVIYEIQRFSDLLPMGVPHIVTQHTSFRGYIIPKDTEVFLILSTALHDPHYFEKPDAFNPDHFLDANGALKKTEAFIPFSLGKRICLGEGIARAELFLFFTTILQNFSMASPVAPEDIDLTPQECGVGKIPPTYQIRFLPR

`CNc1cc2c(cn1)nc([C@@H](C)O)n2[C@H]1CC[C@H](CC#N)CC1` [Example 3, trans-2-[4-[2-[(1R)-1-Hydroxyethyl]-6-(methylamino)imidazo[4,5-c]pyridin-1-yl]cyclohexyl]acetonitrile] was tested, and the IC50 (CYP2B6) was over 50 µM, the “CYP inhibition (in words)” value (CYP [1]) was “no CYP inhibition” and the “time dependent CYP inhibition (in words)” value (CYP [2]) was “No time dependent CYP inhibition was indicated”. For the same molecule, the “CYP1A2 induction (in words)” value (CYP1A2 gene expression) was “does not cause”.
